In patent US20110218158A1, “DNA CYTOSINE DEAMINASE INHIBITORS” (priority 2008, published 2011):

Target: T1, APOBEC3G (Homo sapiens, UniProt Q9HC16)
T1 construct: expressed in transfected cells; crude lysate treated with RNase A
Assay: Fluorescence-based APOBEC3G DNA cytosine deaminase assay for HTS, APOBEC3G containing cell lysate
Format: biochemical
Settings: for inhibited cytosine deaminase activity (FIG. 5): LOPAC1280 library screened in quadruplicate, cell lysate
From the text: FIG. 4 contains a schematic of a fluorescence based APOBEC3G DNA cytosine deaminase activity assay. The single-strand DNA oligonucleotide substrate has 3 features: i) an APOBEC3G deamination target cite 5′CCCA (with the 3rd C strongly preferred by APOBEC3G), ii) a fluorescent 6-FAM label on the 5′ end (excitable by 490 nm wavelength light) and iii) a 6-FAM ‘quenching’ molecule TAMRA on the 3′ end. This intact ssDNA substrate emits low levels of background fluorescence because the 6-FAM is quenched by the nearby TAMRA. Low-molecular mass (LMM) APOBEC3G, derived from an RNase sensitive high-molecular mass (HMM) cellular complex, efficiently deaminates the indicated cytosine base yielding a uracil. Uracil DNA glycosylase excises the uracil base, which creates an a-basic site that is sensitive to hydrolytic attack by the hydroxide ion of NaOH or heated water (H2O). Finally, cleavage of the ssDNA frees 6-FAM from inhibition by TAMRA and results in fluorescence (490 nm light is used to excite 6-FAM and fluorescence is detected at 517 nm).
APOBEC3G containing cell lysates were prepared from near-confluent APOBEC3G expressing 293 stable cell line (211-21, Harris et al., Cell 2003). DMEM growth medium was aspirated and the cells suspended in 1xPBS, 1 mM EDTA, pH 7.4. The cells were pelleted at 1.2K rpm for 5-10 minutes. The supernatant was aspirated and the tube containing the pelleted cells was placed on ice. Thirty mL of lysis buffer (25 mM HEPES, pH7.4, 150 mM NaCl, 0.5% Triton X-100, 1 mM EDTA, 1 mM MgCl2, 1 mM ZnCl2, 10% Glycerol, and Roche EDTA free complete protease inhibitor (added before use)) was added per 3-5 g cell pellet along with 20 μg/mL RNase A (from Qiagen, catalog no. 19101, 100 mg/ml RNase A solution) and the cells suspended by pipetting. The cells were transferred to a cold homogenizer and homogenized for 10 strokes. […] The protein concentration in the cell lysate was quantified using a Bio-Rad protein assay kit or DC protein assay kit, following the manufacturer's instructions.
A fluorescence-based deaminase activity assay for HTS was performed as follows: 1) 20 μl of the crude cell lysate (15 μg protein, diluted in cell lysis buffer, pH7.4) was placed into 384 well plates using Perkin Elmer flexdrop. […] 5) 3 μl N HCl+27 μl 2 M Tris.Cl (pH7.9) was added using Perkin Elmer flexdrop, mixed by shaking, and fluorescence read with excitation at 492 nm and emission at 517 nm at room temperature in LJL Analyst AD.
A 1280 compound library (LOPAC^1280™, from Sigma-Aldrich) was screened in quadruplicate using the method set forth in Example 1. […] In these experiments, each compound was evaluated a total of four times—twice on one day and twice more on the following day. […]

T1 sequence (Q9HC16 whole entry): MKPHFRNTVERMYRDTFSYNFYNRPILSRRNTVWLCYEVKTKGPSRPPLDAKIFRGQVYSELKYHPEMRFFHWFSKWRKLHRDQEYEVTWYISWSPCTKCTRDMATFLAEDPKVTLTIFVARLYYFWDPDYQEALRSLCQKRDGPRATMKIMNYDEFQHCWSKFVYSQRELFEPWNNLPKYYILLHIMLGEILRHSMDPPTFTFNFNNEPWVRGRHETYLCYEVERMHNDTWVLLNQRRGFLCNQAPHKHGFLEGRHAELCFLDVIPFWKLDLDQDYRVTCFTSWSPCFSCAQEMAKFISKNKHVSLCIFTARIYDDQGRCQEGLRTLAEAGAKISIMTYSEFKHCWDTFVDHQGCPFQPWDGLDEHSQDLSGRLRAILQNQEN

Structure (SMILES)	inhibited cytosine deaminase activity (FIG. 5)	inhibition at 10 µM (repeated screen, cell lysate incubated with 10 μM solution of the compound in DMSO, read-out: inhibition of fluorescence relative to positive controls (primary active)) [%]
O=C(O)c1cc[c]([Hg][Cl])cc1 [4-chloromercuribenzoic acid]	Inhibitors of cytosine deaminase	
O=C(O)C1=CC(=C(c2ccc(O)c(C(=O)O)c2)c2ccc(O)c(C(=O)O)c2)C=CC1=O [ATA]	Inhibitors of cytosine deaminase	
Cc1nc(N=Nc2cc(S(=O)(=O)O)c3cc([N+](=O)[O-])cc(S(=O)(=O)O)c3c2)c(COP(=O)(O)O)c(C=O)c1O [PPNDS]	Inhibitors of cytosine deaminase	
Cc1ccc(C(=O)Nc2ccc(S(=O)(=O)O)c3cc(S(=O)(=O)O)cc(S(=O)(=O)O)c23)cc1NC(=O)c1cccc(NC(=O)Nc2cccc(C(=O)Nc3cc(C(=O)Nc4ccc(S(=O)(=O)O)c5cc(S(=O)(=O)O)cc(S(=O)(=O)O)c45)ccc3C)c2)c1 [suramin]		≥ 35
